In US11613542B2, “Sulfonylureas and sulfonylthioureas as NLRP3 inhibitors” (Inflazome Limited, priority 2017, dated 2023):
Counter-ions that a name gives are not always drawn.

Experiment: Pharmacokinetic parameters in male Sprague Dawley rats (intravenous and oral administration)
Assay type: in vivo
Conditions: rat plasma, dose per compound (mg/kg)
Procedure: Pharmacokinetic parameters were determined in male Sprague Dawley rats (Charles River, UK, 250-350 g; or Vital River Laboratory Animal Technology Co Ltd, Beijing, China, 7-9 weeks old). Animals were individually housed during the study and maintained under a 12 h light/dark cycle. Animals had free access to food and water except that some orally dosed animals were food deprived overnight prior to the study.
For intravenous administration, compounds were formulated as a solution in water or DMSO:PBS [10:90] in 2 mL/kg dosing volume and administered via tail vein. For oral administration, compounds were formulated as a solution in water or DMSO:water [10:90] in 5 mL/kg dosing volume and administered orally.
Serial blood samples (about 120-300 μL) were taken from each animal at each of 8 time-points post dose (0.083, 0.25, 0.5, 1, 2, 4, 8 and 24 h) or at each of 12 time-points post dose (0.03, 0.1, 0.17, 0.25, 0.5, 1, 2, 4, 6, 8,12 and 24 h) or pre-dose and at each of 9 time-points post dose (0.25, 0.5, 1, 2, 4, 6, 8, 12 and 24 h). Samples were held on ice for no longer than 30 minutes before centrifugation (10,000 rpm (8,385 g) for 3 minutes; or 5,696 rpm (3,000 g) for 15 minutes) for plasma generation. Plasma was frozen on dry ice prior to bioanalysis. PK parameters were generated from LC-MS/MS data using Dotmatics or Phoenix WinNonlin 6.3 software.

CL/F (male, Sprague Dawley, oral administration) [L/h/kg] | Tmax (male, Sprague Dawley, oral administration, read-out: Tmax) [min] | AUC (oral administration) [µg·h/mL] | Cmax (oral administration) [µg/mL] | T1/2 (oral administration) [min] | AUC (intravenous administration) [µg·h/mL] | Cl (intravenous administration) [L/h/kg] | T1/2 (intravenous administration) [min] | Vdss (intravenous administration) [L/kg] | SMILES
0.36 | 30 | 11.1159 | 5.665 | 66 | – | – | – | – | CC(c1cc(S(=O)(=O)NC(=O)Nc2c3c(cc4c2CCC4)CCC3)nn1C)N(C)C (single isomer, unassigned; enantiomer 2) [Example 90, 5-(1-(Dimethylamino)ethyl)-N-((1,2,3,5,6,7-hexahydro-s-indacen-4-yl)carbamoyl)-1-methyl-1H-pyrazole-3-sulfonamide, Enantiomer 2]
– | – | – | – | – | 2.7104 | 0.63 | 228 | 1.23 | CCn1nc(S(=O)(=O)NC(=O)Nc2c(-c3ccnc(OC)c3)ccc3c2CCC3)cc1CN(C)C [Example 37, 5-((Dimethylamino)methyl)-1-ethyl-N-((5-(2-methoxypyridin-4-yl)-2,3-dihydro-1H-inden-4-yl)carbamoyl)-1H-pyrazole-3-sulfonamide]
– | – | – | – | – | 0.2591 | 3.94 | 30 | 0.98 | Cc1cc(-c2cc(F)cc(C(C)C)c2NC(=O)NS(=O)(=O)c2cc(CN(C)C)n(C)n2)n(C)n1 [Example 60, N-((2-(1,3-Dimethyl-1H-pyrazol-5-yl)-4-fluoro-6-isopropylphenyl)carbamoyl)-5-((dimethylamino)methyl)-1-methyl-1H-pyrazole-3-sulfonamide]
– | – | – | – | – | 0.259 | 3.89 | 30 | 0.75 | CC(C)c1cc(F)cc(-c2cccnc2)c1NC(=O)NS(=O)(=O)c1cc(CN(C)C)n(C)n1 [Example 61, 5-((Dimethylamino)methyl)-N-((4-fluoro-2-isopropyl-6-(pyridin-3-yl)phenyl)carbamoyl)-1-methyl-1H-pyrazole-3-sulfonamide]
– | – | – | – | – | 0.3754 | 3.09 | 72 | 1.14 | CC(C)c1cc(F)cc(-c2cccc(C#N)c2)c1NC(=O)NS(=O)(=O)c1cc(CN(C)C)n(C)n1 [Example 66, N-((3′-Cyano-5-fluoro-3-isopropyl-[1,1′-biphenyl]-2-yl)carbamoyl)-5-((dimethylamino)methyl)-1-methyl-1H-pyrazole-3-sulfonamide]
– | – | – | – | – | 0.2478 | 4.03 | 18 | 1.32 | COc1cc(-c2cc(F)cc(C(C)C)c2NC(=O)NS(=O)(=O)c2cc(CN(C)C)n(C(C)C)n2)ccn1 [Example 67, 5-((Dimethylamino)methyl)-N-((4-fluoro-2-isopropyl-6-(2-methoxypyridin-4-yl)phenyl)carbamoyl)-1-isopropyl-1H-pyrazole-3-sulfonamide]
– | – | – | – | – | 0.356 | 2.86 | 30 | 0.8 | COc1cc(-c2cc(F)cc(C(C)C)c2NC(=O)NS(=O)(=O)c2cc(CN(C)C)n(C)n2)ccn1 [Example 68, 5-((Dimethylamino)methyl)-N-((4-fluoro-2-isopropyl-6-(2-methoxypyridin-4-yl)phenyl)carbamoyl)-1-methyl-1H-pyrazole-3-sulfonamide]
– | – | – | – | – | 0.1825 | 5.48 | 138 | 2.72 | CC(C)c1cc(F)cc(C2CCOCC2)c1NC(=O)NS(=O)(=O)c1cc(C(=O)N(C)C)n(C)n1 [Example 133, 3-(N-((4-Fluoro-2-isopropyl-6-(tetrahydro-2H-pyran-4-yl)phenyl)carbamoyl)sulfamoyl)-N,N,1-trimethyl-1H-pyrazole-5-carboxamide, sodium salt]
– | – | – | – | – | 0.6612 | 1.51 | 726 | 3.03 | CC(C)c1cc(F)cc(-c2cnn(C)c2)c1NC(=O)NS(=O)(=O)c1cc(C(=O)N(C)C)n(C)n1 [Example 135, 3-(N-((4-Fluoro-2-isopropyl-6-(1-methyl-1H-pyrazol-4-yl)phenyl)carbamoyl)sulfamoyl)-N,N,1-trimethyl-1H-pyrazole-5-carboxamide, sodium salt]
